Experimental data taken from article PMC6585632 (Clinical Pharmacology in Drug Development, 2018).
Where “and” joins values, the source holds several entries; their conditions need not be identical. Equal values may be shown once. Entries after “also recorded” stand apart in the source; their conditions may differ. Read-outs that look alike come from different tables or passages of the source. Marks after values point to notes of the source that are not given here.

Columns and labels:
[1] = format: in vivo, human; conditions: for Steady state reached by: plasma trough concentrations; for Arithmetic Mean CLss/F (CV%): day 15 steady state
[2] = Effect of a high-fat meal on single-dose pharmacokinetics; format: in vivo, human; conditions: for AUC / Cmax / half-life / Tmax: human, plasma, oral; for AUC: AUC0‐24h
[3] = Steady-state pharmacokinetics in food effect cohorts; format: in vivo, human; conditions: for Tmax / Cmax / AUC / half-life: human, plasma, oral; for Cmax / AUC / half-life: cycle 1 day 15 steady state; for AUC: AUC0‐t
[4] = Dose proportionality at steady state; format: in vivo, human; conditions: 40–500 mg QD and 240–840 mg BID
[5] = Safety: treatment-emergent adverse events; format: in vivo, human
human hepatocytes = conditions: incubation with human hepatocytes; ref Clovis Oncology, Inc., data on file; cited from earlier work
[6] = incubation with human liver microsomes; ref Clovis Oncology, Inc., data on file; cited from earlier work
[7] = tested on: Recombinant human cytochrome P450 (CYP) 2D6; conditions: recombinant human CYP2D6; ref Clovis Oncology, Inc., data on file; cited from earlier work
[8] = normal metabolizers vs hyperinducers; cited from earlier work
[9] = Part 3, single dose 600 mg, fasted
[10] = Part 3, single dose 600 mg, fed
[11] = Part 3, single dose 600 mg, high‐fat meal
[12] = 40 mg, arithmetic mean, Part 1, single dose 40 mg, cycle 1 day –7 fasted, n 3
[13] = 40 mg, median, Part 1, single dose 40 mg, cycle 1 day –7 fasted, n 3
[14] = 40 mg, median, Part 1, single dose 40 mg, cycle 1 day 1 fed (high-fat meal), n 3
[15] = Part 3, 600 mg BID (n = 26), Grade 5

CNCc1ccc(-c2[nH]c3cc(F)cc4c3c2CCNC4=O)cc1 [rucaparib]
steady‐state accumulation ratio (Rac_AUC0‐12h), range over cohorts ([1]; BID dosing 240‐840 mg): 1.47 to 5.44
Estimated mean CLss/F, range over cohorts ([1]; BID dosing schedule): 26.2 to 58.6 L/h
Steady state reached by ([1]; BID dosing schedule): ≤ 8 cycle 1 day
Arithmetic Mean CLss/F (CV%) ([1]; Part 1, 40 mg QD oral): 26.7 (59) L/h
Arithmetic Mean CLss/F (CV%) ([1]; Part 1, 80 mg QD oral): 47.5 (23) L/h
Arithmetic Mean CLss/F (CV%) ([1]; Part 1, 160 mg QD oral, n = 3): 41.6 (29) ^b L/h
Arithmetic Mean CLss/F (CV%) ([1]; Part 1, 240 mg BID oral, n = 2): 27.3 ^a L/h
Arithmetic Mean CLss/F (CV%) ([1]; Part 1, 300 mg QD oral): 46.7 (63) L/h
Arithmetic Mean CLss/F (CV%) ([1]; Part 1, 360 mg BID oral, n = 2): 40.4 ^a L/h
Arithmetic Mean CLss/F (CV%) ([1]; Part 1, 480 mg BID oral, n = 6): 26.2 (63) ^d L/h
Arithmetic Mean CLss/F (CV%) ([1]; Part 1, 500 mg QD oral): 27.8 (35) L/h
Arithmetic Mean CLss/F (CV%) ([1]; Part 1, 600 mg BID oral, n = 4): 58.6 (123) ^g L/h
Arithmetic Mean CLss/F (CV%) ([1]; Part 1, 840 mg BID oral, n = 1): 29 ^c L/h
Rac_Cmax at steady state, range over cohorts ([1]; Part 1 BID cohorts): 2.6 to 4.9
Rac_Cmax at steady state, range over cohorts ([1]; Part 1 QD cohorts): 1.06 to 1.8
steady‐state accumulation ratio (Rac_AUC0‐24h), range over cohorts ([1]; QD dosing 40‐500 mg): 1.60 to 2.33 and 1.6 to 2.33
Estimated mean CLss/F, range over cohorts ([1]; QD dosing schedule): 26.7 to 47.5 L/h
Steady state reached by ([1]; QD dosing schedule): ≤ 8 cycle 1 day
CLss as share of the normal liver blood flow rate (1450 mL/min) ([1]; at tested oral dose levels): ≤ 24%
CLss, estimated from CLss/F and oral bioavailability of 36% ([1]; at tested oral dose levels): ≤ 350 mL/min
Cmax ([1]; human, plasma, oral, 500 mg, mean Cmax, range over cohorts, Part 1 QD cohorts 40‐500 mg, cycle 1 day 1 single dose): 114 to 949 ng/mL
Tmax ([1]; human, plasma, oral, Median tmax, range over cohorts, Part 1 QD cohorts): 1.5 to 4 h
Tmax ([1]; human, plasma, oral, cohort median tmax, range, across all doses and tablet strengths tested (Parts 1 and 3)): 1.5 to 6 h
Tmax ([1]; human, plasma, po, 360 mg, Median tmax (range), Part 1, 360 mg BID oral, day 1): 3.23 h
effect of food (high‐fat meal) on rucaparib pharmacokinetics ([2]; Part 1, single dose of 40 mg (n = 3) or 300 mg (n = 6)): No effect of food; also recorded: Minimal food effect
median tmax delay by a high‐fat meal ([2]; Part 3, single dose 600 mg): 2.5 h
intersubject variability (CV%) of the geometric mean AUC0‐24h [2, 9]: 84.6%
intersubject variability (CV%) of the geometric mean Cmax [2, 9]: 87.5%
intersubject variability (CV%) of the geometric mean AUC0‐24h [2, 10]: 86.8%
intersubject variability (CV%) of the geometric mean Cmax [2, 10]: 82.8%
fed‐to‐fasted geometric mean ratio (90%CI) for AUC0‐24h [2, 11]: 138%
fed‐to‐fasted geometric mean ratio (90%CI) for Cmax [2, 11]: 120%
AUC ([2]; 40 mg, arithmetic mean, Part 1, single dose 40 mg, cycle 1 day 1 fed (high-fat meal), n 2): 794 ng·h/mL
AUC [2, 12]: 741 ng·h/mL
AUC ([2]; 40 mg, median, Part 1, single dose 40 mg, cycle 1 day 1 fed (high-fat meal), n 2): 794 ng·h/mL
AUC [2, 13]: 468 ng·h/mL
Cmax ([2]; 40 mg, arithmetic mean, Part 1, single dose 40 mg, cycle 1 day 1 fed (high-fat meal), n 3): 64.8 ng/mL
Cmax [2, 12]: 77.9 ng/mL
Cmax [2, 14]: 71.1 ng/mL
Cmax [2, 13]: 57.6 ng/mL
half-life ([2]; 40 mg, t1/2, arithmetic mean, Part 1, single dose 40 mg, cycle 1 day 1 fed (high-fat meal), n 3): 12.6 h
half-life ([2]; 40 mg, t1/2, arithmetic mean, Part 1, single dose 40 mg, cycle 1 day –7 fasted, n 3): 10.6 h
half-life ([2]; 40 mg, t1/2, median, Part 1, single dose 40 mg, cycle 1 day 1 fed (high-fat meal), n 3): 12.7 h
half-life ([2]; 40 mg, t1/2, median, Part 1, single dose 40 mg, cycle 1 day –7 fasted, n 3): 8.16 h
Tmax [2, 14]: 2.55 h
Tmax [2, 13]: 4 h
AUC ([2]; 300 mg, arithmetic mean, Part 1, single dose 300 mg, cycle 1 day 1 fed (high-fat meal), n 5): 6890 ng·h/mL
Mean (CV%) steady‐state CLss/F ([3]; continuous 600 mg BID, Part 3, CV 45%): 44.2 L/h
Tmax ([3]; 40 mg): 4 h
Cmax ([3]; 40 mg, arithmetic mean, Part 1 food effect cohort, 40 mg QD, n 3): 129 ng/mL
Cmax ([3]; 40 mg, median, Part 1 food effect cohort, 40 mg QD, n 3): 103 ng/mL
Tmax ([3]; 300 mg): 2.47 h
AUC ([3]; 300 mg, arithmetic mean, Part 1 food effect cohort, 300 mg QD, t = 24 hours, n 3): 13300 ng·h/mL
AUC ([3]; 300 mg, median, Part 1 food effect cohort, 300 mg QD, t = 24 hours, n 3): 5220 ng·h/mL
Cmax ([3]; 300 mg, arithmetic mean, Part 1 food effect cohort, 300 mg QD, n 5): 727 ng/mL
Cmax ([3]; 300 mg, median, Part 1 food effect cohort, 300 mg QD, n 5): 444 ng/mL
half-life ([3]; 300 mg, t1/2, arithmetic mean, Part 1 food effect cohort, 300 mg QD, n 3): 20 h
half-life ([3]; 300 mg, t1/2, median, Part 1 food effect cohort, 300 mg QD, n 3): 27.5 h
Tmax ([3]; 600 mg): 1.92 h
AUC ([3]; 600 mg, arithmetic mean, Part 3, 600 mg BID, t = 10 hours, n 18): 15800 ng·h/mL
AUC ([3]; 600 mg, median, Part 3, 600 mg BID, t = 10 hours, n 18): 12900 ng·h/mL
Cmax ([3]; 600 mg, arithmetic mean, Part 3, 600 mg BID, n 18): 1940 ng/mL
Cmax ([3]; 600 mg, median, Part 3, 600 mg BID, n 18): 1480 ng/mL
dose proportionality of plasma exposure [4]: approximately dose proportional
deaths due to disease progression ([5]; Part 1): Three
treatment‐related deaths ([5]; Part 1): No treatment‐related deaths
treatment‐related deaths ([5]; Part 3, 600 mg BID): No treatment‐related deaths
Dyspnea [5, 15]: 1 (3.8%) n (%)
Pulmonary embolism [5, 15]: 1 (3.8%) n (%)
metabolic turnover rate (human hepatocytes): slow metabolic turnover rates
metabolic turnover rate [6]: slow metabolic turnover rates
metabolism by recombinant enzyme [7]: able to metabolize rucaparib
effect of CYP1A2 polymorphisms on pharmacokinetics [8]: no apparent effect
